Patent US9534221B2, “Targeting the steroidogenic pathway for treating and/or preventing allergic diseases” (National Jewish Health, priority 2013, dated 2017)

Key:
Balb/c mice = assay: Peanut-induced intestinal allergy model (PE sensitized and challenged mice); format: in vivo, mouse
Experimental: The experimental protocol for sensitization and challenge to peanut was previously described (Wang, M., et al. J. Allergy Clin. Immunol. 126, 306-316 (2010).
AMG was dissolved in 1 M hydrogen chloride and diluted with saline for in vivo studies or diluted with RPMI medium for in vitro study. The final concentration of 1 M hydrogen chloride was less than 1% and 0.05% for in vivo and in vitro, respectively. PE sensitized and challenged mice received different doses (5, 10, 20 mg/kg) of the Cyp11a1 enzyme inhibitor (PE/PE/AMG) by means of gavage using a 22-gauge feeding needle (Fisher Scientific) twice a day during the peanut challenge phase. Controls included PE sensitized and challenged but vehicle (saline) treated (PE/PE/vehicle), or sham sensitized but PE challenged and vehicle-treated (PBS/PE/vehicle) mice.
Anaphylactic symptoms were evaluated 30 minutes after the oral challenge, as previously reported (Li, X. M., et al. J. Allergy Clin. Immunol. 106:150-158 (2000)). Briefly, 0: no symptoms; 1: scratching and rubbing around the nose and head; 2: puffiness around the eyes and mouth, diarrhea, pilar erecti, reduced activity, and/or decreased activity with increased respiratory rate; 3: wheezing, labored respiration, and cyanosis around the mouth and the tail; 4: no activity after prodding or tremor and convulsion; and 5: death. Scoring of symptoms was performed in a blinded manner by an independent observer.
The jejunum was processed and stained with periodic acid-Schiff (PAS) and chloroacetate esterase for detection of mucosal mucus-containing cells and mast cells respectively, as previously described (Wang, M., et al. J. Allergy Clin. Immunol. 126, 306-316 (2010); Tomkinson, A., et al. Am. J. Respir. Crit. Care Med. 163, 721-730 (2001)). Numbers of mucosal cells expressing Cyp11a1 were identified by immunohistochemical (IHC) staining using anti-human Cyp11a1 antibody (Abcam, Cambridge, Mass.).
Serum peanut-specific IgE, IgG1, and IgG2a levels were measured by ELISA, as described previously (Payne, A. H. Biol. Reprod. 42, 399-404 (1990)).
Levels of histamine in plasma were measured using an enzyme immunoassay histamine kit (Beckman Coulter, Fullerton, Calif.), as described by the manufacturer. The concentration of histamine was calculated from a standard curve provided by the manufacturer.
RNA was extracted from jejunal tissue homogenates or from CD4 T cells cultured in vitro using Trizol (Invitrogen). cDNA was generated using the iScript cDNA synthesis kit (Bio-Rad Laboratories, Hercules, Calif.). Quantitative real-time PCR was performed on the ABI Prism 7300 sequence detection system (Applied Biosystems, Foster City, Calif.). All primers and probes used were purchased as Tagman Gene Expression Assays from Applied Biosystems. Fold change was calculated using the Delta Delta cycle threshold (ΔΔCT) method.

[1] = tested on: OVA-sensitized CD8-deficient mice; assay: Secondary allergen challenge model with adoptive transfer of CD8+ T cells; format: in vivo, mouse
Experimental: The experimental protocol for sensitization and challenge to OVA was as described previously (Oka, H. et al. Cell. Immunol. 206, 7-15 (2000); Sundrud, M. S, and Nolan, M. A. Curr. Opin. Immunol. 22, 286-292 (2010)), with some modification. CD8-deficient mice were sensitized with 20 μg of OVA (Calbiochem, La Jolla, Calif.) emulsified in 2.25 mg of alum (AlumImuject; Pierce, Rockford, Ill.) on days 0 and 14 by intraperitoneal injection. Mice were challenged with 0.2% OVA for 20 minutes on days 21, 22, and 23 using an ultrasonic nebulizer (model NE-U07; Omron Healthcare, Kyoto, J P). […] Two hours after transfer, mice were challenged (secondary) with 1% OVA for 20 minutes. Airway function was measured and samples were collected on day 38. Airway function was assessed as described previously (Oka, H. et al. Cell. Immunol. 206, 7-15 (2000); Sundrud, M. S, and Nolan, M. A. Curr. Opin. Immunol. 22, 286-292 (2010)) by measuring changes in airway resistance (RL) in response to increasing doses of inhaled methacholine (Sigma, St. Louis, Mo.). Data were presented as percentage change from the baseline RL values after saline inhalation. […] After measurement of AHR, lungs were lavaged via the tracheal tube with 1 ml of HBSS. The supernatants were collected and IL-4, IL-5, and IL-13 (eBioscience, San Diego, Calif.) levels were measured by ELISA as described previously. Total leukocyte numbers were counted and differentiated as described previously (Oka, H. et al. Cell. Immunol. 206, 7-15 (2000); Sundrud, M. S, and Nolan, M. A. Curr. Opin. Immunol. 22, 286-292 (2010)). Mouse lungs were isolated and fixed in 10% formalin, then embedded in paraffin and cut into 5-μm thick tissue sections. Sections were stained with periodic acid-Schiff (PAS) and mucus-containing cells were quantitated as previously described (Oka, H. et al. Cell. Immunol. 206, 7-15 (2000); Sundrud, M. S, and Nolan, M. A. Curr. Opin. Immunol. 22, 286-292 (2010)). For some experiments, lung tissue expression of Cyp11a1 was identified by immunohistochemistry staining using anti-human Cyp11a1 antibody.

[2] = recipients of AMG-treated vs untreated CD8+ T cells
[3] = recipients of CD8+ T cells pretreated with AMG vs untreated cells

For `CCC1(c2ccc(N)cc2)CCC(=O)NC1=O` (stereo not shown) [AMG, aminoglutethimide], the Clinical symptoms (Balb/c mice; 5 mg/kg) was “no observed inhibitory effects”, the Diarrhea occurrence (Balb/c mice; 5 mg/kg) was “no observed inhibitory effects” and the Diarrhea (Balb/c mice; 10 mg/kg) was “partially inhibited”. The Symptom scores (Balb/c mice; 10 mg/kg) was “partially inhibited”, the “Numbers of mast cells in the mucosa of the small intestine” value (Balb/c mice; 20 mg/kg) was “markedly reduced” and the “Numbers of mucus-producing goblet cells in the mucosa of the small intestine” value (Balb/c mice; 20 mg/kg) was “markedly reduced”. For the same compound, the Clinical symptom scores (Balb/c mice; 20 mg/kg, 30 minutes after oral challenge) was “significantly diminished”, the Development of diarrhea (Balb/c mice; 20 mg/kg, gavage twice a day during challenge phase) was “fully prevented” and the “Cyp11a1 mRNA in the small intestine” value (Balb/c mice; AMG 20 mg/kg) was “did not affect”. For the same compound, the “GATA3 mRNA expression in the small intestine” value (Balb/c mice; AMG 20 mg/kg) was “not affected”, the “IL4 mRNA expression in the small intestine” value (Balb/c mice; AMG 20 mg/kg) was “reduced to baseline levels” and the “IL13 mRNA expression in the small intestine” value (Balb/c mice; AMG 20 mg/kg) was “reduced to baseline levels”. For the same compound, the “IL17A mRNA expression in the small intestine” value (Balb/c mice; AMG 20 mg/kg) was “reduced to baseline levels”, the “Numbers of Cyp11a1-positive cells in the small intestine” value (Balb/c mice; AMG 20 mg/kg) was “did not affect” and the “RORγt mRNA expression in the small intestine” value (Balb/c mice; AMG 20 mg/kg) was “not affected”. For the same compound, the “T-bet mRNA expression in the small intestine” value (Balb/c mice; AMG 20 mg/kg) was “not affected”, the Plasma histamine levels (Balb/c mice; AMG 20 mg/kg, within 30 minutes of the last challenge) was “significantly lower” and the “Serum peanut-specific IgE” value (Balb/c mice; AMG given after sensitization) was “unaffected”. For the same compound, the “Serum peanut-specific IgG1” value (Balb/c mice; AMG given after sensitization) was “unaffected”, the “Serum peanut-specific IgG2a” value (Balb/c mice; AMG given after sensitization) was “unaffected” and the “Cyp11a1-positive cells in the lung” value ([1]; recipients of AMG-treated cells) was “few Cyp11a1-positive cells”. For the same compound, the “IL-4 level in BAL fluid” value [1, 2] was “significantly lower”, the “IL-5 level in BAL fluid” value [1, 2] was “significantly lower” and the “IL-13 level in BAL fluid” value [1, 2] was “significantly lower”. For the same compound, the “Lung inflammation (histology)” value [1, 3] was “less inflammation”, the “Numbers of PAS+ mucus-containing goblet cells in lung” value [1, 3] was “significantly decreased” and the “AHR (changes in airway resistance RL)” value ([1]; transfer of 5×10^6 CD8+ T cells differentiated in IL-2 with AMG (500 μM)) was “failed to restore AHR or airway inflammation”. For the same compound, the “Airway inflammation (cell composition in BAL fluid)” value ([1]; transfer of CD8+ T cells differentiated in IL-2 with AMG (500 μM)) was “failed to restore AHR or airway inflammation”.
